Data reported in patent US12655116B2, “Substituted isophthalic acid diamides” (Bayer Aktiengesellschaft, priority 2020, dated 2026).

Columns and labels:
[1] = test system: ECHCG; experiment: Pre-emergence herbicidal action against ECHCG; assay type: in vivo, Echinochloa crus-galli; conditions: Echinochloa crus-galli, 504 h
Outline: (§1)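 Greenhouse pots of sandy loam held seeds covered with soil, onto which the compound was applied before emergence. An aqueous suspension or emulsion of WP or EC was used at 600 to 800 l/ha with 0.2% wetting agent. Percent damage was judged visually at 3 weeks.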

[2] = test system: POLCO; experiment: Pre-emergence herbicidal action against POLCO; assay type: in vivo, Polygonum convolvulus; conditions: Fallopia convolvulus, 504 h, dosage 320 g/ha
Outline: as §1

[3] = test system: AVEFA; experiment: Pre-emergence herbicidal action against AVEFA; assay type: in vivo, Avena fatua; conditions: Avena fatua, 504 h, pre-emergence; for pest or weed control at 320 g/ha: scored visually after 3 weeks, 100% = plants have died, 0% = like control plants
Outline: as §1

[4] = test system: VERPE; experiment: Post-emergence herbicidal action against VERPE; assay type: in vivo, Veronica persica; conditions: Veronica persica, 504 h
Outline: (§2)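 A WP or EC formulation diluted in water with 0.2% wetting agent was sprayed at 600 to 800 l/ha onto one-leaf-stage plants grown in sandy loam. About 3 weeks later, action was rated visually in percent, 100% being dead plants.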

[5] = test system: ABUTH; experiment: Post-emergence herbicidal action against ABUTH; assay type: in vivo, Abutilon theophrasti; conditions: Abutilon theophrasti, 504 h, visual assessment about 3 weeks after treatment vs untreated controls; for pest or weed control at 20 g/ha: dosage 20 g/ha; for pest or weed control at 80 g/ha: dosage 80 g/ha
Outline: as §2

[6] = test system: STEME; experiment: Pre-emergence herbicidal action against STEME; assay type: in vivo, Stellaria media; conditions: Stellaria media, 504 h; for pest or weed control at 80 g/ha: dosage 80 g/ha; for pest or weed control at 320 g/ha: dosage 320 g/ha
Outline: as §1

[7] = test system: VIOTR; experiment: Pre-emergence herbicidal action against VIOTR; assay type: in vivo, Viola tricolor; conditions: Viola tricolor, 504 h; for pest or weed control at 80 g/ha: dosage 80 g/ha; for pest or weed control at 320 g/ha: dosage 320 g/ha
Outline: as §1

[8] = test system: HORMU; experiment: Pre-emergence herbicidal action against HORMU; assay type: in vivo, Hordeum murinum; conditions: Hordeum murinum, 504 h, pre-emergence
Outline: as §1

[9] = test system: SETVI; experiment: Pre-emergence herbicidal action against SETVI; assay type: in vivo, Setaria viridis; conditions: Setaria viridis, 504 h; for pest or weed control at 80 g/ha: dosage 80 g/ha; for pest or weed control at 320 g/ha: dosage 320 g/ha
Outline: as §1

[10] = test system: AMARE; experiment: Pre-emergence herbicidal action against AMARE; assay type: in vivo, Amaranthus retroflexus; conditions: Amaranthus retroflexus, 504 h, 100% = plants have died, 0% = like control plants; for pest or weed control at 80 g/ha: scored visually after 3 weeks vs untreated controls; for pest or weed control at 320 g/ha: scored visually after 3 weeks
Outline: as §1

[11] = test system: LOLRI; experiment: Pre-emergence herbicidal action against LOLRI; assay type: in vivo, Lolium rigidum; conditions: Lolium rigidum, 504 h, 320 g/ha
Outline: as §1

[12] = test system: PHBPU; experiment: Post-emergence herbicidal action against PHBPU; assay type: in vivo, Pharbitis purpurea; conditions: Ipomoea purpurea, 504 h; for pest or weed control at 80 g/ha: dosage 80 g/ha
Outline: as §2

[13] = test system: VIOTR; experiment: Post-emergence herbicidal action against VIOTR; assay type: in vivo, Viola tricolor; conditions: Viola tricolor, 504 h, 80 g/ha
Outline: as §2

[14] = test system: STEME; experiment: Post-emergence herbicidal action against STEME; assay type: in vivo, Stellaria media; conditions: Stellaria media, 504 h
Outline: as §2

[15] = test system: AMARE; experiment: Post-emergence herbicidal action against AMARE; assay type: in vivo, Amaranthus retroflexus; conditions: Amaranthus retroflexus, 504 h, visual assessment about 3 weeks after treatment, 100% = plants have died, 0% = like control plants
Outline: as §2

[16] = test system: LOLRI; experiment: Post-emergence herbicidal action against LOLRI; assay type: in vivo, Lolium rigidum; conditions: Lolium rigidum, 504 h, dosage 80 g/ha
Outline: as §2

[17] = test system: ALOMY; experiment: Post-emergence herbicidal action against ALOMY; assay type: in vivo, Alopecurus myosuroides; conditions: Alopecurus myosuroides, 504 h, visual assessment about 3 weeks after treatment vs untreated controls; for pest or weed control at 20 g/ha: dosage 20 g/ha; for pest or weed control at 80 g/ha: dosage 80 g/ha
Outline: as §2

[18] = test system: ALOMY; experiment: Pre-emergence herbicidal action against ALOMY; assay type: in vivo, Alopecurus myosuroides; conditions: Alopecurus myosuroides, 504 h, pre-emergence; for pest or weed control at 80 g/ha: scored visually after 3 weeks vs untreated controls (100% = plants have died, 0% = like control plants); for pest or weed control at 320 g/ha: scored visually after 3 weeks, 100% = plants have died, 0% = like control plants
Outline: as §1

[19] = test system: HORMU; experiment: Post-emergence herbicidal action against HORMU; assay type: in vivo, Hordeum murinum; conditions: Hordeum murinum, 504 h; for pest or weed control at 20 g/ha: dosage 20 g/ha; for pest or weed control at 80 g/ha: dosage 80 g/ha
Outline: as §2

[20] = test system: MATIN; experiment: Post-emergence herbicidal action against MATIN; assay type: in vivo, Matricaria inodora; conditions: Tripleurospermum inodorum, 504 h; for pest or weed control at 20 g/ha: dosage 20 g/ha; for pest or weed control at 80 g/ha: dosage 80 g/ha
Outline: as §2

[21] = test system: ABUTH; experiment: Pre-emergence herbicidal action against ABUTH; assay type: in vivo, Abutilon theophrasti; conditions: Abutilon theophrasti, 504 h; for pest or weed control at 80 g/ha: scored visually after 3 weeks vs untreated controls (100% = plants have died, 0% = like control plants); for pest or weed control at 320 g/ha: Dosage: 320 g/ha, scored visually after 3 weeks, 100% = plants have died, 0% = like control plants
Outline: as §1

[22] = test system: SETVI; experiment: Post-emergence herbicidal action against SETVI; assay type: in vivo, Setaria viridis; conditions: Setaria viridis, 504 h, dosage 80 g/ha
Outline: as §2

| SMILES | pest or weed control at 80 g/ha [1] [%] | pest or weed control at 320 g/ha [1] [%] | pest or weed control at 320 g/ha [2] [%] | pest or weed control at 80 g/ha [3] [%] | pest or weed control at 320 g/ha [3] [%] | pest or weed control at 20 g/ha [4] [%] | pest or weed control at 80 g/ha [4] [%] | pest or weed control at 20 g/ha [5] [%] | pest or weed control at 80 g/ha [5] [%] | pest or weed control at 80 g/ha [6] [%] | pest or weed control at 320 g/ha [6] [%] | pest or weed control at 80 g/ha [7] [%] | pest or weed control at 320 g/ha [7] [%] | pest or weed control at 80 g/ha [8] [%] | pest or weed control at 320 g/ha [8] [%] | pest or weed control at 80 g/ha [9] [%] | pest or weed control at 320 g/ha [9] [%] | pest or weed control at 80 g/ha [10] [%] | pest or weed control at 320 g/ha [10] [%] | pest or weed control at 320 g/ha [11] [%] | other results |
| --- | --- | --- | --- | --- | --- | --- | --- | --- | --- | --- | --- | --- | --- | --- | --- | --- | --- | --- | --- | --- | --- |
| CNC(=O)c1c(C(F)F)ccc(C(=O)Nc2nnnn2C)c1Cl [Example 1-147] | 100 | 100 | 90 | 100 | 100 | 90 | 90 | 90 | 90 | 100 | 100 | 100 | 100 | 90 | 100 | 100 | 100 | 100 | 100 | 100 | pest or weed control at 20 g/ha ([12]; dosage 20 g/ha): 80%; pest or weed control at 80 g/ha [12]: 90%; pest or weed control at 80 g/ha [13]: 80%; pest or weed control at 20 g/ha [14]: 80%; pest or weed control at 80 g/ha [14]: 90%; pest or weed control at 20 g/ha [15]: 90%; pest or weed control at 80 g/ha [15]: 90%; pest or weed control at 80 g/ha [16]: 90%; pest or weed control at 20 g/ha [17]: 80%; pest or weed control at 80 g/ha [17]: 90%; pest or weed control at 80 g/ha [18]: 90%; pest or weed control at 320 g/ha [18]: 100%; pest or weed control at 20 g/ha [19]: 80%; pest or weed control at 80 g/ha [19]: 90%; pest or weed control at 20 g/ha [20]: 100%; pest or weed control at 80 g/ha [20]: 100%; pest or weed control at 80 g/ha [21]: 90%; pest or weed control at 320 g/ha [21]: 100% |
| CCn1nnnc1NC(=O)c1ccc(C(F)F)c(C(=O)NC)c1Cl [Example 2-147] | 100 | 100 | 80 | 100 | 100 | 80 | 90 | 90 | 90 | 100 | 100 | 100 | 100 | 90 | 100 | 100 | 100 | 100 | 100 | 90 | pest or weed control at 80 g/ha [12]: 80%; pest or weed control at 80 g/ha [13]: 80%; pest or weed control at 20 g/ha [14]: 80%; pest or weed control at 80 g/ha [14]: 90%; pest or weed control at 20 g/ha [15]: 90%; pest or weed control at 80 g/ha [15]: 90%; pest or weed control at 80 g/ha [16]: 90%; pest or weed control at 20 g/ha [17]: 80%; pest or weed control at 80 g/ha [17]: 90%; pest or weed control at 80 g/ha [18]: 90%; pest or weed control at 320 g/ha [18]: 100%; pest or weed control at 20 g/ha [19]: 80%; pest or weed control at 80 g/ha [19]: 90%; pest or weed control at 20 g/ha [20]: 100%; pest or weed control at 80 g/ha [20]: 100%; pest or weed control at 80 g/ha [21]: 100%; pest or weed control at 320 g/ha [21]: 100% |
| CCNC(=O)c1c(C(F)F)ccc(C(=O)Nc2nnnn2CC)c1Cl [Example 2-148] | 100 | 100 | 100 | 100 | 100 | 80 | 90 | 90 | 90 | 90 | 100 | 100 | 100 | 90 | 100 | 100 | 100 | 100 | 100 | 90 | pest or weed control at 80 g/ha [13]: 80%; pest or weed control at 20 g/ha [14]: 80%; pest or weed control at 80 g/ha [14]: 80%; pest or weed control at 80 g/ha [22]: 80%; pest or weed control at 20 g/ha [15]: 90%; pest or weed control at 80 g/ha [15]: 90%; pest or weed control at 80 g/ha [16]: 80%; pest or weed control at 20 g/ha [17]: 80%; pest or weed control at 80 g/ha [17]: 90%; pest or weed control at 80 g/ha [18]: 90%; pest or weed control at 320 g/ha [18]: 100%; pest or weed control at 20 g/ha [19]: 80%; pest or weed control at 80 g/ha [19]: 90%; pest or weed control at 20 g/ha [20]: 90%; pest or weed control at 80 g/ha [20]: 90%; pest or weed control at 80 g/ha [21]: 100%; pest or weed control at 320 g/ha [21]: 100% |
